In patent US8314255B2, “Use of phthalimide and/or sulphonamide derivatives in the treatment of diseases which require reducing the TNF- α levels and an exogenous source of nitric oxide, phthalimide derivatives, sulphonamide derivatives, and a method for obtaining a sulphonamide derivative” (priority 2007, dated 2012):

Assays:
[1] = test system: abdominal writhing induced by acetic acid; assay: Abdominal writhing assay induced by acetic acid; assay type: in vivo; settings: oral, mice, acetic acid 0.1N i.p. after 1 hour, writhings counted during 20 minutes
Description: In order to evaluate the peripheral analgesic activity of the compounds, an abdominal writhing assay induced by acetic acid (Table 6) was carried out. In this assay, we could infer that compound ID has an important analgesic activity, inhibiting abdominal writhing by 66%. […] The analgesic activity may be related to the ability of these compounds to inhibit the cytokine TNFα, since it is known that this would be one of the mechanisms that explain the analgesia of molecules such as thalidomide.
The antinociceptive profile was evaluated through the abdominal writhing assay induced by acetic acid in mice. In this assay, Swiss mice from both genders were used, weighing from 21 to 28 grams, fasted for a time period of about 8 hours. The test substance was administered orally and had, as a carrier, 5% gum arabic. After 1 hour, the administration of acetic acid 0.1N (0.1 mL/10 g weight) was performed in the peritoneal cavity of the animals. Ten minutes after the injection of acetic acid, writhings were counted during 20 minutes.

[2] = test system: Salmonella typhimurium TA100; assay: AMES test, mutagenic evaluation in Salmonella typhimurium TA100 strain with/without metabolic activation (S9); assay type: cell-based
Description: (§1) The procedure was firstly developed by (MARON, D. M. and AMES, B. N. Mut. Res. v. 113, pp. 173-215, 1983)
(§2) For this assay, Salmonella typhimurium TA100 and TA102 strains from the mutagenicity laboratory of the “Faculdade de Ciências Farmacêuticas—UNESP Araraquara” were used. Such strains have the following characteristics: (AMES, 1983)
(§3) The positive controls are mutagenic compounds specific for each strain and test condition, with 25 μL/plate of sodium azide (1.25 μg/plate) and 100 μL of mitomycin (0.5 μg/plate) being the controls for TA100 and TA102, respectively, in the absence of metabolic activation. For assays with metabolic activation, the positive control for TA100 is 50 μL 2-antramine (1.25 μg/plate) and for TA102 it is 50 μL 2-aminofluorene (1.25 μg/plate).
(§4) The preincubation method was used.
(§5) In laminar flow, Salmonella typhimurium (TA100 and TA 102) strains were inoculated individually with a platinum loop, in the respective nutrient broths and maintained at 37° C., under constant stirring (160 rpm) during 14 hours, in order to achieve a density of 1 to 2×10^9 bacteria/mL.
(§6) Different concentrations of the compounds were added into 100 μL of 0.2M phosphate buffer pH 7.4 (or 500 μL of the mixture S9 in metabolic activation assays) and incubated for 20-30 minutes at 37° C. Solutions containing the compounds had DMSO as the solvent. Thereafter, 2 mL of top agar supplemented with traces of histidine and biotin was added, homogenized and plated in glycosylated minimum medium. After solidification of the top agar, the plates were incubated for 48 hours at a 37° C. Then, the counting of the number of revertant colonies per plate was performed. All tested concentrations, positive and negative controls were run in triplicate.
(§7) After 48 hours, the revertant colonies were counted manually, and the protoCOL Colony Counter Version 3.15.630 (1998-2001) SYNBIOSIS LTD system was used for the positive control.
(§8) The final data obtained from the assay was analyzed using the statistical software Salanal (Salmonella Assay Analysis) version 1.0 from the Research Triangle Institute, RTP, North Carolina, USA. Such software allows the dose-response effect to be evaluated by means of analysis of variance (ANOVA-test F) computations between the measurement of the number of revertants at the different tested concentrations (doses) and the negative control, followed by a linear regression. The software model chosen for analyzing the data was Bernstein's (BERNSTEIN, L. et al. Mutat. Res. v. 97, p. 267-281, 1982). The slope of the straight line from the linear portion of the dose-response curve is also provided by this software and corresponds to the number of revertants induced per measurement unit of the analyzed sample.
(§9) From the results, the mutagenicity ratio (MR) was computed for each analyzed dose from each compound. MR is given by the following equation:
(§10) MR=average number of revertants per test plate (spontaneous+induced revertants) […] average number of revertants per plate of the negative control (spontaneous revertants)
(§11) The spontaneous growing means that the number of revertants which developed on the plate, regardless of being induced or not, wherein values higher or equal to 2 are considered as a positive response (VALENT, G. V. et al. Env. Toxicol. Water Quality. v. 8, p. 371-381, 1993).
(§12) The mutagenicity test with metabolic activation system was performed with a microsomal fraction S9 (S9 mix) prepared from a liver homogenizate from Sprague Dawley rats, previously treated with Aroclor 1254, acquired in the freeze-dried form.
(§13) The procedure for this assay is the same, however, instead of the buffer, 500 μL of the S9 mixture should be added.
(§14) The S9 mixture has a viability of 4 hours from preparation when put on ice. The plates are then incubated for 48 hours at 37° C. After the required time has elapsed, the counting of the revertant colonies was carried out. All tested concentrations, positive and negative controls were run in triplicate.

[3] = test system: Salmonella typhimurium TA102; assay: AMES test, mutagenic evaluation in Salmonella typhimurium TA102 strain with/without metabolic activation (S9); assay type: cell-based
Description: as §1, §2, §3, §4, §5, §6, §7, §8, §9, §10, §11, §12, §13, §14

Nc1ccc(S(=O)(=O)NO)cc1 [Compound IIA, 4-amino-N-hydroxybenzenesulphonamide]
Average (abdominal writhings) [1]: 30.4
mutagenicity ratio (MR) ([2]; TA 100, +S9, 0.98 μmol/plate): 1.24
number of revertants per plate ([2]; TA 100, +S9, 0.98 μmol/plate): 160 ± 12.4 revertants/plate
mutagenicity ratio (MR) ([2]; TA 100, +S9, 1.96 μmol/plate): 1.36
number of revertants per plate ([2]; TA 100, +S9, 1.96 μmol/plate): 175.7 ± 2 revertants/plate
mutagenicity ratio (MR) ([2]; TA 100, +S9, 3.92 μmol/plate): 1.43
number of revertants per plate ([2]; TA 100, +S9, 3.92 μmol/plate): 185.3 ± 15 revertants/plate
mutagenicity ratio (MR) ([2]; TA 100, +S9, 7.85 μmol/plate): 1.59
number of revertants per plate ([2]; TA 100, +S9, 7.85 μmol/plate): 206 ± 13.6 revertants/plate
mutagenicity ratio (MR) ([2]; TA 100, +S9, 15.7 μmol/plate): 2.74
number of revertants per plate ([2]; TA 100, +S9, 15.7 μmol/plate): 354 ± 6.5 revertants/plate
mutagenicity ratio (MR) ([2]; TA 100, −S9, 0.98 μmol/plate): 0.99
number of revertants per plate ([2]; TA 100, −S9, 0.98 μmol/plate): 146.3 ± 5.1 revertants/plate
mutagenicity ratio (MR) ([2]; TA 100, −S9, 1.96 μmol/plate): 1.23
number of revertants per plate ([2]; TA 100, −S9, 1.96 μmol/plate): 180.5 ± 7.8 revertants/plate
mutagenicity ratio (MR) ([2]; TA 100, −S9, 3.92 μmol/plate): 1.22
number of revertants per plate ([2]; TA 100, −S9, 3.92 μmol/plate): 179 ± 11.3 revertants/plate
mutagenicity ratio (MR) ([2]; TA 100, −S9, 7.85 μmol/plate): 1.17
number of revertants per plate ([2]; TA 100, −S9, 7.85 μmol/plate): 172.7 ± 12.5 revertants/plate
mutagenicity ratio (MR) ([2]; TA 100, −S9, 15.7 μmol/plate): 1.19
number of revertants per plate ([2]; TA 100, −S9, 15.7 μmol/plate): 175 ± 2.8 revertants/plate
concentration above which the number of revertants is reduced by cell toxicity ([2]; with metabolic activation): Above 15.7 μmol/plate
mutagenicity ratio (MR) ([3]; TA 102, +S9, 0.98 μmol/plate): 1.03
number of revertants per plate ([3]; TA 102, +S9, 0.98 μmol/plate): 385 ± 33.1 revertants/plate
mutagenicity ratio (MR) ([3]; TA 102, +S9, 1.96 μmol/plate): 0.87
number of revertants per plate ([3]; TA 102, +S9, 1.96 μmol/plate): 323 ± 5.54 revertants/plate
mutagenicity ratio (MR) ([3]; TA 102, +S9, 3.92 μmol/plate): 1.13
number of revertants per plate ([3]; TA 102, +S9, 3.92 μmol/plate): 423.7 ± 22 revertants/plate
mutagenicity ratio (MR) ([3]; TA 102, +S9, 7.85 μmol/plate): 1.03
number of revertants per plate ([3]; TA 102, +S9, 7.85 μmol/plate): 387 ± 14.4 revertants/plate
mutagenicity ratio (MR) ([3]; TA 102, +S9, 15.7 μmol/plate): 0.8
number of revertants per plate ([3]; TA 102, +S9, 15.7 μmol/plate): 300 ± 4.9 revertants/plate
mutagenicity ratio (MR) ([3]; TA 102, −S9, 0.98 μmol/plate): 1.12
number of revertants per plate ([3]; TA 102, −S9, 0.98 μmol/plate): 222 ± 12 revertants/plate
mutagenicity ratio (MR) ([3]; TA 102, −S9, 1.96 μmol/plate): 1.22
number of revertants per plate ([3]; TA 102, −S9, 1.96 μmol/plate): 241 ± 13 revertants/plate
mutagenicity ratio (MR) ([3]; TA 102, −S9, 3.92 μmol/plate): 1.27
number of revertants per plate ([3]; TA 102, −S9, 3.92 μmol/plate): 251 ± 19.2 revertants/plate
mutagenicity ratio (MR) ([3]; TA 102, −S9, 7.85 μmol/plate): 1.17
number of revertants per plate ([3]; TA 102, −S9, 7.85 μmol/plate): 232 ± 13.1 revertants/plate
mutagenicity ratio (MR) ([3]; TA 102, −S9, 15.7 μmol/plate): 1.06
number of revertants per plate ([3]; TA 102, −S9, 15.7 μmol/plate): 210 ± 23 revertants/plate

O=C1c2ccccc2C(=O)N1CCO[N+](=O)[O-] [IB, 2-(1,3-dioxo-1,3-dihydro-2H-isoindol-2-yl)ethyl nitrate]
Average (abdominal writhings) [1]: 39.2
Inhibition % (abdominal writhing) [1]: 23.22%
mutagenicity ratio (MR) ([2]; TA 100, +S9, 0.01 μmol/plate): 3.4
number of revertants per plate ([2]; TA 100, +S9, 0.01 μmol/plate): 354 ± 6.9 revertants/plate
mutagenicity ratio (MR) ([2]; TA 100, +S9, 0.021 μmol/plate): 3.22
number of revertants per plate ([2]; TA 100, +S9, 0.021 μmol/plate): 335 ± 10.8 revertants/plate
mutagenicity ratio (MR) ([2]; TA 100, +S9, 0.042 μmol/plate): 3.8
number of revertants per plate ([2]; TA 100, +S9, 0.042 μmol/plate): 397 ± 25.9 revertants/plate
mutagenicity ratio (MR) ([2]; TA 100, +S9, 0.085 μmol/plate): 3.8
number of revertants per plate ([2]; TA 100, +S9, 0.085 μmol/plate): 395 ± 40.2 revertants/plate
mutagenicity ratio (MR) ([2]; TA 100, +S9, 0.17 μmol/plate): 2.5
number of revertants per plate ([2]; TA 100, +S9, 0.17 μmol/plate): 261 ± 11 revertants/plate
mutagenicity ratio (MR) ([2]; TA 100, −S9, 0.01 μmol/plate): 1.49
number of revertants per plate ([2]; TA 100, −S9, 0.01 μmol/plate): 171 ± 48.9 revertants/plate
mutagenicity ratio (MR) ([2]; TA 100, −S9, 0.021 μmol/plate): 1.74
number of revertants per plate ([2]; TA 100, −S9, 0.021 μmol/plate): 200 ± 23.3 revertants/plate
mutagenicity ratio (MR) ([2]; TA 100, −S9, 0.042 μmol/plate): 1.94
number of revertants per plate ([2]; TA 100, −S9, 0.042 μmol/plate): 223 ± 45.04 revertants/plate
mutagenicity ratio (MR) ([2]; TA 100, −S9, 0.085 μmol/plate): 1.8
number of revertants per plate ([2]; TA 100, −S9, 0.085 μmol/plate): 206 ± 30.2 revertants/plate
mutagenicity ratio (MR) ([2]; TA 100, −S9, 0.17 μmol/plate): 1.43
number of revertants per plate ([2]; TA 100, −S9, 0.17 μmol/plate): 165 ± 11.1 revertants/plate
mutagenicity ratio (MR) ([3]; TA 102, +S9, 0.01 μmol/plate): 1.13
number of revertants per plate ([3]; TA 102, +S9, 0.01 μmol/plate): 249 ± 11.7 revertants/plate
mutagenicity ratio (MR) ([3]; TA 102, +S9, 0.021 μmol/plate): 1.22
number of revertants per plate ([3]; TA 102, +S9, 0.021 μmol/plate): 269 ± 10.6 revertants/plate
mutagenicity ratio (MR) ([3]; TA 102, +S9, 0.042 μmol/plate): 1.09
number of revertants per plate ([3]; TA 102, +S9, 0.042 μmol/plate): 239 ± 22.5 revertants/plate
mutagenicity ratio (MR) ([3]; TA 102, +S9, 0.085 μmol/plate): 1.12
number of revertants per plate ([3]; TA 102, +S9, 0.085 μmol/plate): 247 ± 21.4 revertants/plate
mutagenicity ratio (MR) ([3]; TA 102, +S9, 0.17 μmol/plate): 0.97
number of revertants per plate ([3]; TA 102, +S9, 0.17 μmol/plate): 214 ± 32 revertants/plate
mutagenicity ratio (MR) ([3]; TA 102, −S9, 0.01 μmol/plate): 1.22
number of revertants per plate ([3]; TA 102, −S9, 0.01 μmol/plate): 394 ± 30 revertants/plate
mutagenicity ratio (MR) ([3]; TA 102, −S9, 0.021 μmol/plate): 1.55
number of revertants per plate ([3]; TA 102, −S9, 0.021 μmol/plate): 452 ± 23 revertants/plate
mutagenicity ratio (MR) ([3]; TA 102, −S9, 0.042 μmol/plate): 1.25
number of revertants per plate ([3]; TA 102, −S9, 0.042 μmol/plate): 502 ± 14 revertants/plate
mutagenicity ratio (MR) ([3]; TA 102, −S9, 0.085 μmol/plate): 1.34
number of revertants per plate ([3]; TA 102, −S9, 0.085 μmol/plate): 405 ± 24 revertants/plate
mutagenicity ratio (MR) ([3]; TA 102, −S9, 0.17 μmol/plate): 1.54
number of revertants per plate ([3]; TA 102, −S9, 0.17 μmol/plate): 433 ± 35.4 revertants/plate
